Measured values reported in the NIST ThermoML archive (doi:10.1016/j.jct.2016.08.022).

Settings: for molar entropy: 101.33 kPa, Small (less than 1 g) adiabatic calorimetry

CCC(=O)O[C@]1(C(=O)COC(C)=O)CC[C@H]2[C@@H]3C[C@H](C)C4=CC(=O)C=C[C@]4(C)[C@H]3[C@@H](O)C[C@@]21C [Methylprednisolone aceponate]
Settings	molar entropy [J/K/mol]
5 K, Crystal 2	0.628
10 K, Crystal 2	4.44
15 K, Crystal 2	10.8
20 K, Crystal 2	18.5
25 K, Crystal 2	27.49
30 K, Crystal 2	37.43
40 K, Crystal 2	58.9
50 K, Crystal 2	81.57
60 K, Crystal 2	105
70 K, Crystal 2	128.9
80 K, Crystal 2	152.9
90 K, Crystal 2	177.1
100 K, Crystal 2	201.3
110 K, Crystal 2	225.4
120 K, Crystal 2	249.3
130 K, Crystal 2	273.2
140 K, Crystal 1	296.3
150 K, Crystal 1	318.6
160 K, Crystal 1	340.7
170 K, Crystal 1	362.5
180 K, Crystal 1	384.1
190 K, Crystal 1	405.4
200 K, Crystal 1	426.6
210 K, Crystal 1	447.6
220 K, Crystal 1	468.5
230 K, Crystal 1	489.3
240 K, Crystal 1	509.9
250 K, Crystal 1	530.5
260 K, Crystal 1	551
270 K, Crystal 1	571.5
280 K, Crystal 1	591.8
290 K, Crystal 1	612.1
298.15 K, Crystal 1	628.6
300 K, Crystal 1	632.4
310 K, Crystal 1	652.6
320 K, Crystal 1	672.9
330 K, Crystal 1	693.1
340 K, Crystal 1	713.4
346 K, Crystal 1	725.6

Settings	Triple point temperature [K]
Crystal 2, Adiabatic calorimetry	131
